For 71 compounds, LC retention time results are on record in the RepoRT retention time repository.

This data set in a line: Waters ACQUITY UPLC BEH C18, 100 × 2.1 mm, 1.7 µm, 40 °C, 0.3 to 0.4 mL/min, estimated dead time 0.63 min; A: water + 0.1% formic acid; B: methanol + 0.1% formic acid; gradient (min/%B) 0/0.5 0.1/0.5 10/80 10.1/99.5 12/99.5. As to conditions: stereoisomer not certain.
Consider `CC1(C)CCC2(C(=O)O)CCC3(C)C(=CCC4C5(C)CC(O)C(O)C(C)(C)C5CCC43C)C2C1` (stereo unspecified), for which the LC retention time was 9.77 min.

For the compound `CC1OC(OC2C(OC3C(OC4CCC5(C)C(CCC6(C)C5CC=C5C7CC(C)(C)C(OC8OC(C)C(O)C(O)C8O)CC7(C)CCC56C)C4(C)CO)OC(C(=O)O)C(O)C3O)OC(C(=O)O)C(O)C2O)C(O)C(O)C1O` (stereo unspecified), the LC retention time was 5.68 min.

`O=c1c(OC2OCC(O)C(O)C2O)c(-c2cc(O)c(O)c(O)c2)oc2cc(O)cc(O)c12` (stereo unspecified): the LC retention time is 3.9 min. The figure for `C=C1CCCC2(C)CC3(O)OC(=O)C(C)=C3CC12` (stereo unspecified) is 7.91 min; for `COc1ccc2cc1Oc1ccc(cc1)CC1c3cc(c(OC)cc3CCN1C)Oc1c(OC)c(OC)cc3c1C(C2)N(C)CC3` (stereo unspecified) it is 4.19 min.

Turning to `COc1cc(C=CC(=O)OC(CC(=O)O)C(=O)O)cc(OC)c1O` (stereo unspecified), the LC retention time was 4.23 min. Consider `CN1C2CCC1CC(OC(=O)C(CO)c1ccccc1)C2` (stereo unspecified), for which the LC retention time is 3.59 min. Regarding `CCc1nccc2c1[nH]c1ccccc12`, the LC retention time was 4.01 min. Take `COc1cc(C=CC(=O)N2CCC=CC2=O)cc(OC)c1OC`: the LC retention time is 6.83 min. The same measure for `C=CC1C(OC2OC(CO)C(O)C(O)C2O)OC(O)=C2C(=O)N3CCc4c([nH]c5ccccc45)C3=CC21` (stereo unspecified): 5.07 min; for `CCCCCCCCCCCCOS(=O)(=O)O`: 8.65 min; for `O=C(C=Cc1ccccc1)c1ccccc1`: 9.02 min.

Consider `CC1OC(Oc2cc(O)c3c(=O)c(OC4OC(CO)C(O)C(O)C4OC4OC(C)C(O)C(O)C4O)c(-c4ccc(O)c(O)c4)oc3c2)C(O)C(O)C1O` (stereo unspecified), for which the LC retention time is 3.09 min. The same measure for `C=CCC(=NOS(=O)(=O)O)SC1OC(CO)C(O)C(O)C1O` (stereo unspecified): 1.77 min; for `CC(=O)OCC1OC(Oc2cc(O)c3c(=O)cc(-c4ccc(O)cc4)oc3c2)C(O)C(O)C1O` (stereo unspecified): 5.14 min.

Take `O=C(O)C1C(O)CCC2CN3CCc4c([nH]c5ccccc45)C3CC21` (stereo unspecified): the LC retention time was 3.82 min.

Take `O=C1CC(c2ccc(O)cc2)Oc2cc(O)cc(O)c21` (stereo unspecified): the LC retention time is 5.95 min. Turning to `CC1(C)CC(O)C2(C)CCC3(C)C(=CCC4C5(C)CCC(OC6OC(C(=O)O)C(O)C(O)C6OC6OC(CO)C(O)C(O)C6OC6OC(CO)C(O)C(O)C6O)C(C)(CO)C5CCC43C)C2C1` (stereo unspecified), the LC retention time is 6.97 min. As for `CS(=O)CCCCC#N` (stereo unspecified), the LC retention time is 2.21 min. In the case of `CC1OC(OC2C(COC3OC(CO)C(O)C(O)C3O)OC(OC3CCC4(C)C(CCC5(C)C4C=CC4=C6CC(C)(C)CCC6(CO)C(O)CC45C)C3(C)C)C(O)C2O)C(O)C(O)C1O` (stereo unspecified), the LC retention time was 6.29 min. The same measure for `CC1C2CCC3C4CC=C5CC(N(C)C)CCC5(C)C4CCC32CN1C` (stereo unspecified): 3.35 min; for `CCCCCC=CCC=CCC=CCCCCC(=O)OC(CO)COP(=O)(O)OCCN` (stereo unspecified): 8.73 min.

`O=c1c(-c2ccc(O)cc2)coc2c(C3OC(CO)C(O)C(O)C3O)c(O)ccc12` (stereo unspecified): the LC retention time is 3.27 min. On to `COc1c(-c2ccccc2)oc2c(OC)c(O)cc(O)c2c1=O`, for which the LC retention time is 5.71 min. As for `CN(C)Cc1c[nH]c2ccccc12`, the LC retention time is 3.06 min. The same measure for `CC1CCC2(OC1O)OC1CC3C4CC=C5CC(OC6OC(CO)C(OC7OC(C)C(O)C(O)C7O)C(O)C6OC6OC(C)C(O)C(O)C6O)CCC5(C)C4CC(O)C3(C)C1C2C` (stereo unspecified): 5.61 min; for `COc1ccc2c(c1OC)C(=O)OC2C1c2cc3c(cc2CCN1C)OCO3` (stereo unspecified): 4.21 min. For the compound `O=C(O)CC(=O)OCC1OC(Oc2c(-c3ccc(O)c(O)c3)oc3cc(OC4OC(CO)C(O)C(O)C4O)cc(O)c3c2=O)C(O)C(O)C1O` (stereo unspecified), the LC retention time was 3.11 min. The same measure for `CC(=O)OC1C(C)CNC2C(C)C3C(CC4C5CCC6CC(OC7OC(CO)C(OC8OC(CO)C(O)C(OC9OCC(O)C(O)C9O)C8OC8OC(CO)C(O)C(O)C8O)C(O)C7O)CCC6(C)C5CCC43C)OC21O` (stereo unspecified): 4.29 min; for `O=c1cc(-c2ccc(O)cc2)oc2c(C3OC(CO)C(O)C(O)C3O)c(O)c(C3OCC(O)C(O)C3O)c(O)c12` (stereo unspecified): 3.41 min; for `CCCCCCCCCCCCC(O)C(O)C(COC1OC(CO)C(O)C(O)C1O)NC(C)=O` (stereo unspecified): 4.55 min. Take `COc1cc2c3cc1Oc1cc(ccc1O)CC1c4c(cc(OC)c(O)c4Oc4ccc(cc4)CC3N(C)CC2)CC[N+]1(C)C` (stereo unspecified): the LC retention time was 3.41 min. The same measure for `CCC(C)C(N)C(=O)O` (stereo unspecified): 1.94 min; for `COc1cc(-c2cc(=O)c3c(O)cc(OC4OC(C(=O)O)C(O)C(O)C4OC4OC(C(=O)O)C(O)C(O)C4O)cc3o2)cc(OC)c1O` (stereo unspecified): 3.96 min; for `COC(=O)CC(OC(=O)C=Cc1cc(OC)c(O)c(OC)c1)C(=O)OC` (stereo unspecified): 3.28 min. Turning to `CC1=C(O)C(=O)CC(OC2CC(C)(C)CC3C4=CCC5C6(C)CCC(OC7OC(C(=O)O)C(O)C(O)C7OC7OC(CO)C(O)C(O)C7OC7OC(C)C(O)C(O)C7O)C(C)(CO)C6CCC5(C)C4(C)CCC23C)O1` (stereo unspecified), the LC retention time was 7.68 min. The figure for `CSCCCCCCCN=C=S` is 9.19 min; for `O=S(=O)(O)ON=C(Cc1ccccc1)SC1OC(CO)C(O)C(O)C1O` (stereo unspecified) it is 2.83 min; for `NCCCCNC(=O)C=Cc1ccccc1` it is 3.7 min.

Take `O=c1cc(-c2ccc(O)cc2)oc2cc(O)ccc12`: the LC retention time is 7.38 min. Consider `CC1=C(O)C(=O)CC(OC2CC(C)(C)CC3C4=CCC5C6(C)CCC(OC7OC(C(=O)O)C(O)C(O)C7OC7OC(C(=O)O)C(O)C(O)C7O)C(C)(CO)C6CCC5(C)C4(C)CCC23C)O1` (stereo unspecified), for which the LC retention time was 7.96 min. Regarding `C=CC1C(OC2OC(CO)C(O)C(O)C2O)OC=C(C(=O)O)C1Cc1nccc2c1[nH]c1ccc(O)cc12` (stereo unspecified), the LC retention time is 3.69 min. The same measure for `O=c1c(OC2OCC(O)C(O)C2O)c(-c2ccc(O)cc2)oc2cc(O)cc(O)c12` (stereo unspecified): 4.47 min; for `O=c1c(OC2OC(COC3OCC(O)C(O)C3O)C(O)C(O)C2O)c(-c2ccc(O)c(O)c2)oc2cc(O)cc(O)c12` (stereo unspecified): 3.7 min. On to `O=C(O)C1CCCN1C(=O)C1CCCN1` (stereo unspecified), for which the LC retention time was 1.82 min. The figure for `CC(O)(CC(=O)O)CC(=O)O` is 1.98 min; for `CC(C)C(NC(=O)Cc1c[nH]c2ccccc12)C(=O)O` (stereo unspecified) it is 5.61 min; for `COc1cccc2c(=O)c3ccoc3n(C)c12` it is 5.59 min. The figure for `CC(C)CC(NC(=O)Cc1c[nH]c2ccccc12)C(=O)O` (stereo unspecified) is 6.2 min.

For the compound `Oc1cc(O)c2ccc(-c3ccc(O)c(O)c3)[o+]c2c1`, the LC retention time was 3.59 min. The figure for `CCCCCC=CC=CC(CCCCCCCC(=O)O)OO` (stereo unspecified) is 8 min. For the compound `CC(CCC1(O)OC2CC3C4CC=C5CC(OC6OC(CO)C(OC7OC(C)C(O)C(O)C7O)C(O)C6OC6OC(C)C(O)C(O)C6O)CCC5(C)C4CCC3(C)C2C1C)COC1OC(CO)C(O)C(O)C1O` (stereo unspecified), the LC retention time is 5.05 min. The figure for `COc1cc(-c2oc3cc(O)cc(O)c3c(=O)c2OC2OC(CO)C(O)C(O)C2OC2OC(C)C(O)C(O)C2O)ccc1O` (stereo unspecified) is 3.72 min; for `CC1OC(OC2C(OC3C(OC4CCC5(C)C(CCC6(C)C5CC=C5C7CC(C)(C)CC(=O)C7(C)CCC56C)C4(C)CO)OC(C(=O)O)C(O)C3O)OC(CO)C(O)C2O)C(O)C(O)C1O` (stereo unspecified) it is 7.62 min; for `CC1OC(OCC2OC(Oc3c(-c4ccc(O)cc4)oc4cc(O)cc(O)c4c3=O)C(O)C(O)C2O)C(O)C(O)C1O` (stereo unspecified) it is 4 min. The same measure for `CCC1CC2CN3CCC4(O)C(=Nc5ccc(OC)cc54)C(C(=O)OC)(C2)C13` (stereo unspecified): 4.01 min.

As for `CC1(C)CCC2(C(=O)O)C(O)CC3(C)C(=CCC4C5(C)CCC(OC6OC(CO)C(O)C(O)C6O)C(C)(C)C5CCC43C)C2C1` (stereo unspecified), the LC retention time is 7.33 min.

Regarding `C=CCNC(=O)C=Cc1ccc(O)c(OC)c1`, the LC retention time was 2.86 min. Consider `CN1CCc2cc3c(c4c2C1Cc1ccccc1-4)OCO3` (stereo unspecified), for which the LC retention time is 4.89 min. The figure for `NCCc1c[nH]c2ccccc12` is 1.79 min; for `O=c1cc(-c2ccc(O)c(O)c2)oc2c(C3OC(CO)C(O)C(O)C3O)c(O)c(C3OCC(O)C(O)C3O)c(O)c12` (stereo unspecified) it is 3.19 min. With `CCC1C(=O)OCc2c1cc1n(c2=O)Cc2cc3ccccc3nc2-1` (stereo unspecified), the LC retention time was 5.77 min. The same measure for `COc1cc(C=CC(=O)OC2C(OC3C(Oc4cc(O)c5c(=O)cc(-c6ccc(O)c(OC)c6)oc5c4)OC(C(=O)O)C(O)C3O)OC(C(=O)O)C(O)C2O)ccc1O` (stereo unspecified): 4.68 min; for `CC1OC(OC2C(OC3C(OC4CCC5(C)C(CCC6(C)C5CC=C5C7CC(C)(C)CC(OC8OC(C)C(O)C(O)C8O)C7(C)CCC56C)C4(C)CO)OC(C(=O)O)C(O)C3O)OCC(O)C2O)C(O)C(O)C1O` (stereo unspecified): 5.86 min; for `C=C1CC23CC4C5C6(C)CC(OC(C)=O)CC57C2C(O)C1C(O)C3(O)C7N4C6` (stereo unspecified): 3.03 min.

Consider `CC(C)=CCc1c(O)ccc(C(=O)C=Cc2ccc(O)cc2)c1O`, for which the LC retention time is 8.93 min. The same measure for `CN1CCc2cc3c(cc2C(=O)Cc2ccc4c(c2C1)OCO4)OCO3`: 4.36 min; for `CC(CCC1(O)OC2CC3C4CC=C5CC(O)CC(OC6OC(CO)C(O)C(O)C6O)C5(C)C4CCC3(C)C2C1C)COC1OC(CO)C(O)C(O)C1OC1OC(C)C(O)C(O)C1O` (stereo unspecified): 4.34 min; for `O=C(O)CC(=O)OCC1OC(Oc2c(-c3ccc(O)c(O)c3)oc3cc(O)cc(O)c3c2=O)C(O)C(O)C1O` (stereo unspecified): 4.22 min.

For `COc1ccc2ccc(=O)oc2c1CC=C(C)C`, the LC retention time is 8.75 min. The figure for `O=C1CC(c2ccc(O)c(O)c2)Oc2cc(O)cc(O)c21` (stereo unspecified) is 5.35 min.
